From patent publication US10501460B2, “Heterocyclic compounds and uses thereof” (Plexxikon Inc., priority 2013, dated 2019)

Assays:
[1] = system: MV-4-11; test: Oncology cell growth assay MV-4-11 (CellTiter Glo, 72 hours); type: cell-based; details: Homo sapiens, MV4-11, 72 h; MV-4-11 cell growth inhibitory activity, 3d
Procedure, shortened: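 Growth read by CellTiter Glo luminescence after 72 h compound exposure of MV-4-11 AML cells (MLL-AF4), using 8-point 1:3 series to 10 μM final in 0.2% DMSO. Data normalized to DMSO wells, four-parameter fit yields pIC50.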

[2] = biological target: T1, BRD4-BD1 (44-164) (Homo sapiens, UniProt O60885); test: Alphascreen binding assay BRD4-BD1 (BRD4 biochemical inhibitory activity); details: read-out: Biochemical activity (IC50 μM) BRD4(1) H4
T1 construct: BRD4-BD1 (44-164); made in house; host or cells: E. coli BL21-CodonPlus (DE3)
Method: Binding of compounds of formula (I) with bromodomain 2, 3 4 was assessed using Alphascreen binding assay. The inhibition of the interaction between bromodomain and its acetylated target protein (Filippakopoulos P et al. 2012) was measured quantitatively using recombinant BRD proteins, an acetylated Histone 4 peptide and AlphaScreen™ technology. In absence of inhibition the BRD protein bound to AlphaScreen™ nickel chelate acceptor beads can interact with the acetylated Histone 4 peptide which is immobilized by the AlphaScreen™ Streptavidin coated beads. This interaction brings donor and acceptor beads in proximity. The close proximity allows the singlet oxygen produced by laser excitation of the donor beads to reach the acceptor beads and generate a luminescence signal. BRD inhibitors result in a decrease in the proximity signal through an inhibition of the BRD—acetylated peptide interaction.
Recombinant human bromodomains containing the N-terminal bromodomain (BRD2-BD1 (71-194), BRD3-BD1 (24-144) and BRD4-BD1 (44-164)) or dual bromodomains (BRD4-BD12 (1-477), BRD4-BD12 (1-472)) were prepared and purified as described in protein expression and purification session. The peptide is human Histone H41-21K5AcK8AcK12AcK16Ac-Biotin (Anaspec Calif., USA).
Protocol for BRD2, BRD3 and BRD4 assay: All components are prepared in buffer composed of 50 mM HEPES pH 7.5, 100 mM NaCl, 0.01% bovine serum albumin (“BSA”), 0.01% Triton X-100, 2 mM dithiothreitol (“DTT”). 7 μL of Bromodomain protein and 7 μL of peptide are added to wells containing 1 μL of various concentrations of test compounds of formula (I) or DMSO vehicle in an Alphaplate (PerkinElmer Ga., USA) and incubated for 1 hour at room temperature. 4 μL donor and acceptor bead mixture is then added with final concentrations of 7.5 μg/ml. 30 minutes after bead addition, Alpha signal is read on the Envision spectrometer ([…]Ex 680 nm, […]Em 520-620 nm). Final concentrations of bromodomain proteins and peptide are as shown below.
All data was normalized to the mean of 16 high and 16 low control wells on each plate. A four parameter curve fit of the following formula was then applied: Y=a+(b−a)/(1+(x/c)^d) Where ‘a’ is the minimum, ‘b’ is the maximum, ‘c’ is the pIC50 and ‘d’ is the Hill slope. Protein Expression and Purification
Recombinant human bromodomains containing the N-terminal bromodomain (BRD2-BD1 (71-194), BRD3-BD1 (24-144) and BRD4-BD1 (44-164)) or dual bromodomains (BRD4-BD12 (1-477), BRD4-BD12 (1-472)) were expressed in E. coli cells (in a modified pET vector) with an N-terminal six-His tag and purified using a combination of both IMAC (Ni-affinity) and size exclusion chromatography steps.
Recombinant BRD proteins were expressed using the E. coli strain BL21-CodonPlus (DE3) (Agilent Technologies Calif., USA). Cells were grown in Terrific Broth (TB) media to an OD600 of 1.2 at 37° C. at which temperature was reduced to 25° C., protein was induced with 1.0 mM ispropyl-β-D-thiogalactopyranoside (“IPTG”) for 12-18 hours and harvested by centrifugation at 8000×g for 20 minutes. Cells were re-suspended in 0.1M K2PO4 pH 8.0, 250 mM NaCl, 10% Glycerol, 0.75% NP-40, 25 mM Imidazole, 5 mM beta-mercaptoethanol (“BME”) with 0.2 mg/ml Lysosyme, 2.0 mM phenylmethanesulfonyl fluoride (“PMSF”), 25 μg/ml DNAse I, incubated on ice for 30 minutes and lyzed with a cell disruptor (MicroFluidics Mass., USA). The lysate was clarified by centrifugation at 20,000×g for 2 hours. The protein was captured with Ni-NTA resin (Life Technologies, USA). Contaminating proteins were washed off with 25 mM Tris-HCl pH 8.3, 250 mM NaCl, 12% Glycerol and 50 mM Imidazole. Following 3× wash steps, protein was eluted step wise using a 50 mM HEPES pH 7.5, 500 mM NaCl and 400 mM Imidazole. The protein was further purified using Gel Filtration column 26/600 Superdex 200 (GE Biosciences NJ, USA) in 50 mM HEPES pH 7.5, 250 mM NaCl. The protein was aliquoted and flash-frozen in liquid Nitrogen. […]

[3] = system: bromodomain; test: Bromodomain cell assays of Example 40 (at least one of them); type: cell-based; details: in at least one of the bromodomain cell assays described in Example 40
Procedure, shortened: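 Growth inhibition: 3000 MV-4-11, MOLM-13, MM.1S or neuroblastoma cells/well got an 8-point 1:3 series from 10 μM top (0.2% DMSO) for 72 h, then CellTiter-Glo luminescence. Myc reporter: MV-4-11 with E-box firefly luciferase, 24 h exposure, One-Glo luminescence plus CellTiter-Fluo cell count. pIC50 from four-parameter fit.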

| Compound | IC50 [1] | IC50 [2] | IC50 [3] |
| --- | --- | --- | --- |
| Cc1cc2cc(-c3c(C)noc3C)cnc2[nH]1 [P-0017, 3,5-dimethyl-4-(2-methyl-1H-pyrrolo[2,3-b]pyridin-5-yl)isoxazole] | 1 to 10 µM | 1 to 10 µM | < 10 µM |
| Cc1noc(C)c1-c1cnc2[nH]cc(C(O)c3ccc(C(F)(F)F)nc3)c2c1 (stereo not drawn) [P-0023, [5-(3,5-dimethylisoxazol-4-yl)-1H-pyrrolo[2,3-b]pyridin-3-yl]-[6-(trifluoromethyl)-3-pyridyl]methanol] | 1 to 10 µM | 1 to 10 µM | < 10 µM |
| COc1ccc(S(=O)(=O)n2ccc3ncc(-c4c(C)noc4C)cc32)cc1 [P-0032, 4-[1-(4-methoxyphenyl)sulfonylpyrrolo[3,2-b]pyridin-6-yl]-3,5-dimethyl-isoxazole] | 1 to 10 µM | 1 to 10 µM | < 10 µM |
| Cc1noc(C)c1-c1cnc2ccn(S(=O)(=O)c3ccc(OC(C)C)cc3)c2c1 [P-0033, 4-[1-(4-isopropoxyphenyl)sulfonylpyrrolo[3,2-b]pyridin-6-yl]-3,5-dimethyl-isoxazole] | 1 to 10 µM | 1 to 10 µM | < 10 µM |
| CCc1cc2cc(-c3c(C)noc3C)cnc2[nH]1 [P-0035, 4-(2-ethyl-1H-pyrrolo[2,3-b]pyridin-5-yl)-3,5-dimethyl-isoxazole] | 1 to 10 µM | 1 to 10 µM | < 10 µM |
| Cc1noc(C)c1-c1cnc2[nH]cc(Cc3cccc(OC(F)(F)F)c3)c2c1 [P-0046, 3,5-dimethyl-4-[3-[[3-(trifluoromethoxy)phenyl]methyl]-1H-pyrrolo[2,3-b]pyridin-5-yl]isoxazole] | 1 to 10 µM | 1 to 10 µM | < 10 µM |
| Cc1noc(C)c1-c1cnc2ccn(S(=O)(=O)c3ccc(F)cc3)c2c1 [P-0052, 4-[1-(4-fluorophenyl)sulfonylpyrrolo[3,2-b]pyridin-6-yl]-3,5-dimethyl-isoxazole] | 1 to 10 µM | 1 to 10 µM | < 10 µM |
| Cc1noc(C)c1-c1cnc2ccn(S(=O)(=O)c3ccc(Cl)cc3)c2c1 [P-0053, 4-[1-(4-chlorophenyl)sulfonylpyrrolo[3,2-b]pyridin-6-yl]-3,5-dimethyl-isoxazole] | 1 to 10 µM | 1 to 10 µM | < 10 µM |
| Cc1noc(C)c1-c1cnc2ccn(S(=O)(=O)c3cnn(C(F)F)c3)c2c1 [P-0054, 4-[1-[1-(difluoromethyl)pyrazol-4-yl]sulfonylpyrrolo[3,2-b]pyridin-6-yl]-3,5-dimethyl-isoxazole] | 1 to 10 µM | 1 to 10 µM | < 10 µM |
| Cc1noc(C)c1-c1cnc2ccn(S(=O)(=O)c3cccs3)c2c1 [P-0055, 3,5-dimethyl-4-[1-(2-thienylsulfonyl)pyrrolo [3,2-b]pyridin-6-yl]isoxazole] | 1 to 10 µM | 1 to 10 µM | < 10 µM |
| Cc1noc(C)c1-c1cnc2ccn(S(=O)(=O)c3cccc(F)c3)c2c1 [P-0056, 4-[1-(3-fluorophenyl)sulfonylpyrrolo[3,2-b]pyridin-6-yl]-3,5-dimethyl-isoxazole] | 1 to 10 µM | 1 to 10 µM | < 10 µM |
| Cc1noc(C)c1-c1cnc2ccn(S(=O)(=O)c3cccc(Cl)c3)c2c1 [P-0057, 4-[1-(3-chlorophenyl)sulfonylpyrrolo[3,2-b]pyridin-6-yl]-3,5-dimethyl-isoxazole] | ≤ 1 µM | 1 to 10 µM | < 10 µM |
| Cc1nn(C(F)F)cc1S(=O)(=O)n1ccc2ncc(-c3c(C)noc3C)cc21 [P-0058, 4-[1-[1-(difluoromethyl)-3-methyl-pyrazol-4-yl]sulfonylpyrrolo[3,2-b]pyridin-6-yl]-3,5-dimethyl-isoxazole] | 1 to 10 µM | 1 to 10 µM | < 10 µM |
| Cc1csc(S(=O)(=O)n2ccc3ncc(-c4c(C)noc4C)cc32)c1 [P-0059, 3,5-dimethyl-4-[1-[(4-methyl-2-thienyl)sulfonyl]pyrrolo[3,2-b]pyridin-6-yl]isoxazole] | 1 to 10 µM | 1 to 10 µM | < 10 µM |
| Cc1noc(C)c1-c1cnc2ccn(S(=O)(=O)c3cccc(OC(F)F)c3)c2c1 [P-0061, 4-[1-[3-(difluoromethoxy)phenyl]sulfonylpyrrolo [3,2-b]pyridin-6-yl]-3,5-dimethyl-isoxazole] | 1 to 10 µM | 1 to 10 µM | < 10 µM |
| [2H]C([2H])([2H])n1cc(CC2CCC(F)(F)CC2)c2cc(-c3c(C)noc3C)cnc21 [P-0079, 4-[3-[(4,4-difluorocyclohexyl)methyl]-1-(trideuteriomethyl)pyrrolo[2,3-b]pyridin-5-yl]-3,5-dimethyl-isoxazole] | 1 to 10 µM | ≤ 1 µM | < 10 µM |
| [2H]C([2H])([2H])n1cc(C(OC)C2CCC(F)(F)CC2)c2cc(-c3c(C)noc3C)cnc21 (stereo not drawn) [P-0080, 4-[3-[(4,4-difluorocyclohexyl)-methoxy-methyl]-1-(trideuteriomethyl)pyrrolo[2,3-b]pyridin-5-yl]-3,5-dimethyl-isoxazole] | ≤ 1 µM | ≤ 1 µM | < 10 µM |
| Cc1noc(C)c1-c1cnc2c(-c3cccnc3)c[nH]c2c1 [P-0083, 3,5-dimethyl-4-[3-(3-pyridyl)-1H-pyrrolo[3,2-b]pyridin-6-yl]isoxazole] | 1 to 10 µM | 1 to 10 µM | < 10 µM |
| Cc1noc(C)c1-c1cnc2[nH]cc(C(=O)C3CCSCC3)c2c1 [P-0091, [5-(3,5-dimethylisoxazol-4-yl)-1H-pyrrolo[2,3-b]pyridin-3-yl]-tetrahydrothiopyran-4-yl-methanone] | 1 to 10 µM | ≤ 1 µM | < 10 µM |
| Cc1noc(C)c1-c1cnc2c(c1)N(S(=O)(=O)c1ccccc1)CC2CCC(=O)O (stereo not drawn) [P-0175, 3-[1-(benzenesulfonyl)-6-(3,5-dimethylisoxazol-4-yl)-2,3-dihydropyrrolo[3,2-b]pyridin-3-yl]propanoic acid] |  | 1 to 10 µM | < 10 µM |
| Cc1noc(C)c1-c1cnc2c(c1)c(Sc1ccccc1)cn2C1COC1 [P-0178, 3,5-dimethyl-4-[1-(oxetan-3-yl)-3-phenylsulfanyl-pyrrolo[2,3-b]pyridin-5-yl]isoxazole] | 1 to 10 µM | 1 to 10 µM |  |
| Cc1noc(C)c1-c1cnc2c(-c3cnn(C)c3)cn(C(=O)C3CCC(F)(F)CC3)c2c1 [P-0208, (4,4-difluorocyclohexyl)-[6-(3,5-dimethylisoxazol-4-yl)-3-(1-methylpyrazol-4-yl)pyrrolo[3,2-b]pyridin-1-yl]methanone] | 1 to 10 µM | ≤ 1 µM |  |
